{"source": "patent US20130115256A1", "about": "“METHODS FOR TREATING OR PREVENTING VASCULAR GRAFT FAILURE” (priority 2010, published 2013)", "key": {"[1]": {"tested_on": "mouse lung endothelial cells (MLEC)", "assay": "MCP-1 production immunoassay", "type": "cell-based", "settings": "even at high doses", "method": "Monocyte Chemotractic Protein-1 (MCP-1) production from mouse lung endothelial cells (MLEC) was analyzed using conditioned culture medium by Quantikine® Mouse CCL/JE/MCP-1 Immunoassay (R&D Systems) following the manufacturer's instructions. Briefly, the assay employs a quantitative sandwich enzyme immunoassay technique in which a monoclonal antibody specific for MCP-1 has been pre-coated onto a microplaste. Standards and samples are pipetted into the wells and any MCP-1 present is bound by the immobilized antibody. After washing away any unbound substances, an enzyme-linked polyclonal antibody specific for MCP-1 is added to the wells. Following a wash to remove any unbound antibody-enzyme reagent, a substrate solution is added to the wells and color develops in proportion to the amount of MCP-1 bound in the initial step. The color development is stopped and the intensity of the color is measured at 450 nm, with wavelength correction at 540 nm or 570 nm."}, "[2]": {"tested_on": "human smooth muscle cell (SMC; HASMC)", "assay": "MTS cell proliferation assay, human smooth muscle cells", "type": "cell-based", "method": "(§1) The CellTiter 96® AQueous Non-Radioactive Cell Proliferation Assay (Promega) was used to assess drug effects on cell proliferation according to the manufacturer's instructions. Briefly, HAECs and HASMCs from early passages were grown to 80-90% confluence in 25 cm^2 tissue culture flasks in a 37° C./5% CO2 incubator prior to harvest. 200 μl of each type of cell suspension (at 20,000 cells/cm^2) was seeded onto separate 96-well plates to yield an approximate 60% confluence per well. Cells were allowed to adhere to the plate surface overnight, followed by addition of 20 ng/ml of TNF-α to stimulate production of inflammatory agents. After a 4-6 hour incubation period, MMI-0100 peptide drug ([…]; SEQ ID NO: 1) was added and cells incubated for another 20-24 hours. Each well was then supplemented with 100 μl of fresh medium and 200 μl of CellTiter 96® AQueous One Solution Reagent and incubated for an additional 1.5-2 hours prior to measuring absorbance of each well at 490 nm with a SoftMax®-equipped plate reader.\n(§2) In order to determine the effect of pharmacological doses of MMI-0100 ([…]; SEQ ID NO: 1) on human endothelial cell (EC) and smooth muscle cell (SMC) proliferation, human EC and SMC cultures were treated with three concentrations (0.25 mM, 0.5 mM, and 1 mM) of MMI-0100 ([…] (SEQ ID NO: 1)) following pre-treatment with TNF-α."}, "[3]": {"tested_on": "human saphenous vein (HSV)", "assay": "Sodium nitroprusside-induced relaxation of human saphenous vein in muscle bath", "settings": "for relaxation (percent relaxation): 100 μM pretreatment, phenylephrine 10^-6 M", "method": "In preparation for testing vein segment functional viability, HSV rings were weighed and their lengths recorded. To focus on smooth muscle responses, the endothelium was mechanically denuded by rolling the luminal surface of each ring at the tip of a fine vascular forceps before suspension in a muscle bath containing a bicarbonate buffer (120 mM NaCl, 4.7 mM KCl, 1.0 mM MgSO4, 1.0 mM NaH2PO4, 10 mM glucose, 1.5 mM CaCl2, and 25 mM […], pH 7.4) equilibrated with 95% O2 and 5% CO2 at 37° C. The rings were stretched and the length progressively adjusted until maximal tension was obtained. Normalized reactivity was obtained by determining the passive length-tension relationship for each vessel segment. Rings were maintained at a resting tension of 1 g, which produces maximal responses to contractile agonists as previously determined, and equilibrated for 2 hours in buffer. Force measurements were obtained using a Radnoti Glass Technology (Monrovia, Calif.) force transducer (159901A) interfaced with a Powerlab data acquisition system and Chart software (AD Instruments, Colorado Springs, Colo.).\nHSV rings were first contracted with 110 mM KCl (with equimolar replacement of NaCl in bicarbonate buffer) and the generated force was measured. 110 mM KCl causes membrane depolarization, leading to contraction of vessels containing functionally viable smooth muscle. After multiple KCl challenges, rings were washed and allowed to equilibrate in bicarbonate solution for 30 min, and then contracted with phenylephrine (PE, 10^−7-10^−6 M). Rings were relaxed with a cumulative log dose of sodium nitroprusside (SNP), a nitric oxide donor, and the force generated was recorded. All rings were again washed and equilibrated in buffer for 15 minutes. Rings were then incubated with either buffer alone or buffer plus 100 μM of MMI-0100 ([…] (SEQ ID NO: 1)) for 2 hours, followed by treatment with the same doses of PE and SNP, and the forces generated again recorded. Measured force was normalized for ring weight and length and percent relaxation was calculated; force generated with 10^−6M of PE was set as 0% relaxation.\nThe enhancing effect of MMI-0100 ([…]; SEQ ID NO: 1) on smooth muscle relaxation was examined by pre-treating harvested human saphenous vein (HSV) with MMI-0100 ([…]; SEQ ID NO: 1) before SNP treatment. Segments of human saphenous vein (HSV) were equilibrated in a muscle bath and pretreated with a control solution (0.01M phosphate-buffered solution, PBS) or MMI-0100 ([…] (SEQ ID NO: 1); 30 μM, 2 hrs), contracted with norepinephrine. and relaxed with increasing doses of sodium nitroprusside (SNP, 0-1 μM). Percentage of relaxation at 0, 0.01, 0.1, and 1.0 μM of SNP was measured. […]"}, "[4]": {"tested_on": "human endothelial cell (EC; HAEC)", "assay": "MTS cell proliferation assay, human endothelial cells", "type": "cell-based", "method": "as §1, §2"}}}
{"sequence": "YARAAARQARAKALARQLGVAA [MMI-0100]", "values": [{"measurement": "MCP-1 production", "setting": "[1]", "value": "did not stimulate MCP-1 production"}, {"measurement": "SMC proliferation compared to control (20 ng/ml TNF-α alone)", "setting": "[2]; 0.25 mM MMI-0100", "value": "slightly increased"}, {"measurement": "increase in SMC proliferation compared to control (20 ng/ml TNF-α alone)", "setting": "[2]; 0.5 mM MMI-0100", "value": 12, "unit": "%"}, {"measurement": "increase in SMC proliferation compared to control (20 ng/ml TNF-α alone)", "setting": "[2]; 1 mM MMI-0100", "value": 7, "unit": "%"}, {"measurement": "SMC morphology, phase contrast images", "setting": "[2]; 24 hours treatment", "value": "no obvious morphological changes"}, {"measurement": "increase in relaxation compared to HSV pretreated with control solution", "setting": "[3]; 30 μM, 2 hrs pretreatment, norepinephrine contraction, SNP 0-1 μM, n=3", "value": "about 40%"}, {"measurement": "relaxation (percent relaxation)", "setting": "[3]; 10^-7 M SNP (untreated control 72.768±6.99)", "value": "92.54±3.09"}, {"measurement": "relaxation (percent relaxation)", "setting": "[3]; 10^-8 M SNP (untreated control 10.825±5.62)", "value": "25.622±6.38"}, {"measurement": "EC proliferation compared to control (20 ng/ml TNF-α alone)", "setting": "[4]; 0.25 mM MMI-0100", "value": "slightly increased"}, {"measurement": "increase in EC proliferation compared to control (20 ng/ml TNF-α alone)", "setting": "[4]; 0.5 mM MMI-0100", "value": 30, "unit": "%"}, {"measurement": "increase in EC proliferation compared to control (20 ng/ml TNF-α alone)", "setting": "[4]; 1 mM MMI-0100", "value": 11, "unit": "%"}, {"measurement": "EC morphology, phase contrast images", "setting": "[4]; 24 hours treatment", "value": "no obvious morphological changes"}]}
